Measured values reported in patent publication US12180226B2, “Spirotricycle RIPK1 inhibitors and methods of uses thereof” (Merck Sharp & Dohme LLC, priority 2021, dated 2024).
Counter-ions that a name gives are not always drawn.

These compounds were tested against RIPK1 (recombinant GST-RIPK1 kinase domain, residues 1-327) (Homo sapiens (Human), UniProt Q13546) (assay: RIPK1-ADP-Glo Enzymatic Assay). Conditions: ADP-Glo; 25 nM GST-RIPK1, 300 μM ATP; assay lower limit ~25 nM; read-out: RIPK1 V0 Ec50.
RIPK1 (recombinant GST-RIPK1 kinase domain, residues 1-327), sequence (Q13546 1-327): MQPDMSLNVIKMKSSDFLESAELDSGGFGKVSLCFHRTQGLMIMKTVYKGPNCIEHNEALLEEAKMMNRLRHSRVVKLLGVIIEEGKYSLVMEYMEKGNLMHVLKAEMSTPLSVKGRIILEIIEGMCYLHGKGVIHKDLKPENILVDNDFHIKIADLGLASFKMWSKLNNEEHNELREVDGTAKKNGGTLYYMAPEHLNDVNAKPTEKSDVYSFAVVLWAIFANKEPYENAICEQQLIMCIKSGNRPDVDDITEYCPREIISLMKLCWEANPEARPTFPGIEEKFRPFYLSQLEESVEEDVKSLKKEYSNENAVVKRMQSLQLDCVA
Format: biochemical
Procedure, shortened: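 Using dephosphorylated MBP (3 μM) as substrate and 300 μM ATP, 25 nM baculovirus-produced enzyme was reacted for 150 min after a 30-min compound pre-incubation. Luminescent ADP detection followed; lower confidence limit ~25 nM.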

EC50	Structure (SMILES)
< 25 nM	O=C(c1cc(F)ccc1F)N1CCC2(CC1)O[C@@H]1CC[C@@H](c3cc(F)cc(F)c3)N1C2=O [Example 5.1, (5′S,7a′R)-1-(2,5-Difluorobenzoyl)-5′-(3,5-difluorophenyl)tetrahydro-3′H-spiro[piperidine-4,2′-pyrrolo[2,1-b]oxazol]-3′-one]
138 nM	Cc1cc(C(=O)N2CCC3(CC2)O[C@@H]2CC[C@@H](c4cc(F)cc(F)c4)N2C3=O)ccc1C#N [Example 5.18, 4-((5′S,7a′R)-5′-(3,5-difluorophenyl)-3′-oxo-tetrahydro-3′H-spiro [piperidine-4,2′-pyrrolo-[2,1-b]oxazole]-1-carbon-yl)-2-methylbenzonitrile]
< 25 nM	Cc1cc(C#N)cnc1N1CCC2(CC1)O[C@@H]1CC[C@@H](c3cc(F)cc(F)c3)N1C2=O [Example 4.47, 6-[(5′S,7a′R)-5′-(3,5-difluorophenyl)-3′-oxotetrahydro-1H,3′H-spiro[piperidine-4,2′-pyrrolo[2,1-b] [1,3]oxazol]-1-yl]-5-methylpyridine-3-carbonitrile]
33.7 nM	O=C1N2[C@H](OC13CCN(c1ccnc4ccnn14)CC3)[C@H](O)C[C@H]2c1ccccc1 [Example 4.248, (5′S,7′R,7a′R)-7′-hydroxy-5′-phenyl-1-(pyrazolo[1,5-a]pyrimidin-7-yl)tetrahydro-3′H-spiro[piperidine-4,2′-pyrrolo[2,1-b] [1,3]oxazol]-3′-one]
< 25 nM	N#Cc1cccc(C(=O)N2CCC3(CC2)O[C@@H]2CC[C@@H](c4cccc(F)c4)N2C3=O)c1 [Example 6.115, 3-[(5′S,7a′R)-5′-(3-fluorophenyl)-3′-oxo-tetrahydro-1H,3′H-spiro[piperidine-4,2′-pyrrolo[2,1-b][1,3]-oxazole]-1-carbonyl] benzonitrile]
54.4 nM	COC(=O)c1c(C)cc(N2CCC3(CC2)O[C@@H]2CC[C@@H](c4ccccc4)N2C3=O)nc1C#N [Example 4.192, methyl 2-cyano-4-methyl-6-[(5′S,7a′R)-3′-oxo-5′-phenyltetrahydro-1H,3′H-spiro[piperidine-4,2′-pyrrolo[2,1-b] [1,3]oxazol]-1-yl] pyridine-3-carboxylate]
215 nM	O=C1N2[C@@H](CC[C@H]2c2ccccc2)OC12CCN(c1ccc(=O)n(CC3CC3)n1)CC2 [Example 11.8, (5′S,7a′R)-1-[1-(cyclopropylmethyl)-6-oxo-1,6-dihydropyridazin-3-yl]-5′-phenyltetrahydro-3′H-spiro[piperidine-4,2′-pyrrolo[2,1-b][1,3]oxazol]-3′-one]
< 25 nM	O=C1N2[C@@H](CC[C@H]2c2ccccc2)OC12CCN(c1ccnc3c(F)cnn13)CC2F (single isomer, unassigned) [Example 4.92, (3[S or R],4[R or S], 5′S,7a′R)-3-fluoro-1-(3-fluoropyrazolo[1,5-a]pyrimidin-7-yl)-5′-phenyltetrahydro-3′H-spiro[piperidine-4,2′-pyrrolo[2,1-b]oxazol]-3′-one, TFA salt]
< 25 nM	O=C1N2[C@@H](CC[C@H]2c2ccccc2F)OC12CCN(c1cccc3ncnn13)CC2 [Example 4.253, (5′S,7a′R)-5′-(2-fluorophenyl)-1-([1,2,4]triazolo[1,5-a]pyridin-5-yl)tetrahydro-3′H-spiro[piperidine-4,2′-pyrrolo[2,1-b] [1,3]oxazol]-3′-one]
< 25 nM	Cc1nc(N2CCC3(CC2)O[C@@H]2CC[C@@H](c4cccc(F)c4)N2C3=O)ccc1C#N [Example 4.77, 6-[(5′S,7a′R)-5′-(3-fluorophenyl)-3′-oxotetrahydro-1H,3′H-spiro[piperidine-4,2′-pyrrolo[2,1-b] [1,3]oxazol]-1-yl]-2-methylpyridine-3-carbonitrile]
< 25 nM	O=C(c1cc(Cl)ccc1F)N1CCC2(CC1)O[C@@H]1CC[C@@H](c3ccccc3F)N1C2=O [Example 1.14, (5′S,7a′R)-1-(5-chloro-2-fluorobenzoyl)-5′-(2-fluorophenyl)tetrahydro-3′H-spiro[piperidine-4,2′-pyrrolo[2,1-b]oxazol]-3′-one]
149 nM	COc1nc(N2CCC3(CC2)O[C@@H]2CC[C@@H](c4cc(F)cc(F)c4)N2C3=O)ncc1C [Example 4.59, (5′S,7a′R)-5′-(3,5-difluorophenyl)-1-(4-methoxy-5-methylpyrimidin-2-yl)tetrahydro-3′H-spiro[piperidine-4,2′-pyrrolo[2,1-b] [1,3]oxazol]-3′-one]
67.7 nM	O=C1N2[C@@H](CC[C@H]2c2ccccc2)OC12CCN(c1ccn(-c3cnccn3)n1)CC2 [Example 11.5, (5′S,7a′R)-5′-phenyl-1-[1-(pyrazin-2-yl)-1H-pyrazol-3-yl]tetrahydro-3′H-spiro[piperidine-4,2′-pyrrolo[2,1-b][1,3]oxazol]-3′-one]
76.8 nM	COc1ccc2oc(N3CCC4(CC3)O[C@@H]3CC[C@@H](c5ccccc5)N3C4=O)nc2c1 [Example 4.160, (5′S,7a′R)-1-(5-methoxy-1,3-benzoxazol-2-yl)-5′-phenyltetrahydro-3′H-spiro[piperidine-4,2′-pyrrolo[2,1-b] [1,3]oxazol]-3′-one]
36.1 nM	CC(C)Oc1cccc(C(=O)N2CCC3(CC2)O[C@@H]2CC[C@@H](c4cc(F)cc(F)c4)N2C3=O)n1 [Example 6.90, (5′S,7a′R)-5′-(3,5-difluorophenyl)-1-{6-[(propan-2-yl)oxy]-pyridine-2-carbonyl} tetrahydro-3′H-spiro [piperidine-4,2′-pyrrolo[2,1-b][1,3]-oxazol]-3′-one]
48.8 nM	O=C1N2[C@@H](CC[C@H]2c2ccccc2)OC12CN(c1cccc3ncnn13)C2 [Example 4.133, (5′S,7a′R)-5′-phenyl-1-([1,2,4]triazolo[1,5-a]pyridin-5-yl)tetrahydro-3′H-spiro[azetidine-3,2′-pyrrolo[2,1-b] [1,3]oxazol]-3′-one]
69.8 nM	CC(C)NC(=O)c1nc(N2CCC3(CC2)O[C@@H]2CC[C@@H](c4cc(F)cc(F)c4)N2C3=O)ncc1F [Example 7.14, 2-[(5′S,7a′R)-5′-(3,5-difluorophenyl)-3′-oxotetrahydro-1H,3′H-spiro[piperidine-4,2′-pyrrolo[2,1-b][1,3]oxazol]-1-yl]-5-fluoro-N-(propan-2-yl)pyrimidine-4-carboxamide]
208 nM	O=C1N2[C@@H](CC[C@H]2c2cc(F)cc(F)c2)OC12CCN(c1ccc(OCC3CCO3)c3ccnn13)CC2 (mixture of isomers) [Example 19.5, (5′S,7a′R)-5′-(3,5-difluorophenyl)-1-(4-(((R and S)-oxetan-2-yl)methoxy)pyrazolo [1,5-a]pyridin-7-yl)tetrahydro-3′H-spiro[piperidine-4,2′-pyrrolo[2,1-b]oxazol]-3′-one, TFA salt]
< 25 nM	Cc1ccc(F)c(C(=O)N2CCC3(CC2)O[C@@H]2CC[C@@H](c4ccccc4F)N2C3=O)c1 [Example 1.17, (5′S,7a′R)-1-(2-fluoro-5-methylbenzoyl)-5′-(2-fluorophenyl)tetrahydro-3′H-spiro[piperidine-4,2′-pyrrolo[2,1-b]oxazol]-3′-one]
33.1 nM	O=C(c1cscn1)N1CCC2(CC1)O[C@@H]1CC[C@@H](c3cc(F)cc(F)c3)N1C2=O [Example 5.44]
< 25 nM	O=C1N2[C@@H](CC[C@H]2c2ccccc2)OC12CCN(c1cc(F)ccn1)CC2 [Example 4.14, (5′S,7a′R)-1-(4-fluoropyridin-2-yl)-5′-phenyltetrahydro-3′H-spiro[piperidine-4,2′-pyrrolo[2,1-b] [1,3]oxazol]-3′-one]
